Results on 17 molecules are retold here after patent US12559492B2, “BRAF degraders” (C4 Therapeutics, Inc., priority 2020, dated 2026).

For the assay, the target named is BRAF^V600E protein (Homo sapiens, UniProt P15056, V600E). The experiment in a line: HiBiT cellular BRAF V600E degradation assay. To be noted: 24 h incubation; for DC50: A375.10 cells (HiBiT tag knocked in at N-terminal of BRAF V600E), concentration at which 50% of total cellular BRAF V600E is degraded; for Emax: A375.10 cells, Emax = amount of residual protein remaining in the cell after compound treatment, read-out: HiBit 24 h Emax. It counts as cell-based. (The HiBiT peptide binds its large partner to form an active luciferase.)
BRAF^V600E protein, sequence (P15056 whole entry V600E): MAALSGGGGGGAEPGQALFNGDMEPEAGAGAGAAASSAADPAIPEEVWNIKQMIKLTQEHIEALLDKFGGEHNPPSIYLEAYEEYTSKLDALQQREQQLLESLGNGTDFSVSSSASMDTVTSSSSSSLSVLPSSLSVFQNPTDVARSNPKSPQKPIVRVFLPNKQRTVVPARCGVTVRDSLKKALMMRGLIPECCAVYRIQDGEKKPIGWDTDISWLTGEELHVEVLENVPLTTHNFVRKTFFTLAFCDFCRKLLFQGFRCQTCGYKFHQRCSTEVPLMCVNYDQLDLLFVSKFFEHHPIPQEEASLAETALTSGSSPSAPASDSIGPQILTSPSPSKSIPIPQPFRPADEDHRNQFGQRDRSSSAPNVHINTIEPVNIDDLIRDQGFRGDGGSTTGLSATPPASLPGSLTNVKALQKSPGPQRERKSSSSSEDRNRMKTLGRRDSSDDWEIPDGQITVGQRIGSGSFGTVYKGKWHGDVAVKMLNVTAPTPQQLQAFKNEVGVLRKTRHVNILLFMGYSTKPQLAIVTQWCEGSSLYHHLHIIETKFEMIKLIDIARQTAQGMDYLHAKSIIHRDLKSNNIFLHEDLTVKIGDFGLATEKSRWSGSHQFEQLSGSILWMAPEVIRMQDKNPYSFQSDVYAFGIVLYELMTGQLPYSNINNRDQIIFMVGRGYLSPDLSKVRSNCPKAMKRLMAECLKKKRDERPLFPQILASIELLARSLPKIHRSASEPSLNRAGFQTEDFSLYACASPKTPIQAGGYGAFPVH

On to `CCN(C)S(=O)(=O)Nc1ccc(F)c(C(=O)c2c[nH]c3ncc(-c4cnc(N5CCN(C(=O)CC6(O)CCN(c7ccc(N[C@@H]8CCC(=O)NC8=O)cc7Cl)CC6)CC5)nc4)cc23)c1F` [Example 209, 5-[2-[4-[2-[1-[2-chloro-4-[[(3R)-2,6-dioxo-3-piperidyl]amino]phenyl]-4-hydroxy-4-piperidyl]acetyl]piperazin-1-yl]pyrimidin-5-yl]-3-[3-[[ethyl(methyl)sulfamoyl]amino]-2,6-difluoro-benzoyl]-1H-pyrrolo[2,3-b]pyridine], for which the DC50 is 0.76 nM and the Emax turned out to be 5.52%.
For the molecule `CCN(C)S(=O)(=O)Nc1ccc(F)c(C(=O)c2c[nH]c3ncc(-c4ccc(CN5CCC(C(=O)N6CCC(c7ccc(OC8CCC(=O)NC8=O)cc7)CC6)C5)cc4)cc23)c1F` (stereo not shown) [Example A20, 5-[4-[[3-[4-[4-(2,6-Dioxopiperidin-3-yl)oxyphenyl]piperidine-1-carbonyl]pyrrolidin-1-yl]methyl]phenyl]-3-[3-[[ethyl(methyl)sulfamoyl]amino]-2,6-difluorobenzoyl]-1H-pyrrolo[2,3-b]pyridine], the DC50 was 138 nM and the Emax is 24%.
For `O=C1CCC(Oc2ccc(C3CCN(CC(=O)N4CCN(c5ccc(-c6cnc7[nH]cc(C(=O)c8c(F)ccc(NS(=O)(=O)N9CCCC9)c8F)c7c6)cc5)CC4)CC3)cc2)C(=O)N1` (stereo not shown) [Example A50, N-[3-[5-[4-[4-[2-[4-[4-(2,6-Dioxopiperidin-3-yl)oxyphenyl]piperidin-1-yl]acetyl]piperazin-1-yl]phenyl]-1H-pyrrolo[2,3-b]pyridine-3-carbonyl]-2,4-difluorophenyl]pyrrolidine-1-sulfonamide] the same measures were 15 nM and 12%.
As to `CCN(C)S(=O)(=O)Nc1ccc(F)c(C(=O)c2c[nH]c3ncc(-c4ccc(N5CCN(C(=O)CN6CCC(c7ccc(C8CCC(=O)NC8=O)cc7)CC6)CC5)nc4)cc23)c1F` (stereo not shown) [Example A82, 5-[6-[4-[2-[4-[4-(2,6-Dioxopiperidin-3-yl)phenyl]piperidin-1-yl]acetyl]piperazin-1-yl]pyridin-3-yl]-3-[3-[[ethyl(methyl)sulfamoyl]amino]-2,6-difluorobenzoyl]-1H-pyrrolo[2,3-b]pyridine], it took 7.65 nM to reach half-maximal degradation (DC50) and the Emax is 9.6%.
Turning to `CCN(C)S(=O)(=O)Nc1ccc(F)c(C(=O)c2c[nH]c3ncc(-c4ccc(N5CCN(C(=O)CC6(O)CCN(c7ccc(N8CCC(=O)NC8=O)cc7Cl)CC6)CC5)nc4)cc23)c1F` [Example 214, 5-[6-[4-[2-[1-[2-chloro-4-(2,4-dioxohexahydropyrimidin-1-yl)phenyl]-4-hydroxy-4-piperidyl]acetyl]piperazin-1-yl]-3-pyridyl]-3-[3-[[ethyl(methyl)sulfamoyl]amino]-2,6-difluoro-benzoyl]-1H-pyrrolo[2,3-b]pyridine], it took 0.65 nM to reach half-maximal degradation (DC50) and the Emax was 5.48%.
For `CCN(C)S(=O)(=O)Nc1ccc(F)c(C(=O)c2c[nH]c3ncc(-c4cnc(N5CCN(C(=O)CN6CCC(c7ccc(N8CCC(=O)NC8=O)cc7)CC6)CC5)nc4)cc23)c1F` [Example A91, 5-[2-[4-[2-[4-[4-(2,4-Dioxo-1,3-diazinan-1-yl)phenyl]piperidin-1-yl]acetyl]piperazin-1-yl]pyrimidin-5-yl]-3-[3-[[ethyl(methyl)sulfamoyl]amino]-2,6-difluorobenzoyl]-1H-pyrrolo[2,3-b]pyridine] the same measures were 5 nM and 8%.
Consider `CCN(C)S(=O)(=O)Nc1ccc(F)c(C(=O)c2c[nH]c3ncc(-c4ccc(N5CCC(NC(=O)CN6CCC(c7ccc(NC8CCC(=O)NC8=O)cc7)CC6)CC5)nc4)cc23)c1F` (stereo not shown) [Example A66, 2-[4-[4-[(2,6-Dioxopiperidin-3-yl)amino]phenyl]piperidin-1-yl]-N-[1-[5-[3-[3-[[ethyl(methyl)sulfamoyl]amino]-2,6-difluorobenzoyl]-1H-pyrrolo[2,3-b]pyridin-5-yl]pyridin-2-yl]piperidin-4-yl]acetamide; formic acid], for which half-maximal degradation (DC50) was put at 17 nM and the Emax is 13%.
In the case of `CCN(C)S(=O)(=O)Nc1ccc(F)c(C(=O)c2c[nH]c3ncc(-c4ccc(N5CCN(C(=O)CN6CCC(c7ccc(O[C@@H]8CCC(=O)NC8=O)cc7)CC6)CC5)nc4)cc23)c1F` [Example A122, 5-[6-[4-[2-[4-[4-[(3R)-2,6-Dioxopiperidin-3-yl]oxyphenyl]piperidin-1-yl]acetyl]piperazin-1-yl]pyridin-3-yl]-3-[3-[[ethyl(methyl)sulfamoyl]amino]-2,6-difluorobenzoyl]-1H-pyrrolo[2,3-b]pyridine], it took 32 nM to reach half-maximal degradation (DC50) and the Emax was 9%.
Take `CCN(C)S(=O)(=O)Nc1ccc(F)c(C(=O)c2c[nH]c3ncc(-c4ccc(N5CCN(C(=O)CN6CCC(N7CCN(C8CCC(=O)NC8=O)C(=O)C7)C(F)(F)C6)CC5)cc4)cc23)c1F` (stereo not shown) [Example 172, 5-[4-[4-[2-[4-[4-(2,6-dioxo-3-piperidyl)-3-oxo-piperazin-1-yl]-3,3-difluoro-1-piperidyl]acetyl]piperazin-1-yl]phenyl]-3-[3-[[ethyl(methyl)sulfamoyl]amino]-2,6-difluoro-benzoyl]-1H-pyrrolo[2,3-b]pyridine]: the DC50 stood at 4.67 nM and the Emax is 6.28%.
For `CCN(C)S(=O)(=O)Nc1ccc(F)c(C(=O)c2c[nH]c3ncc(-c4cnc(N5CC[C@H](C(=O)N6CCC(c7ccc(NC8CCC(=O)NC8=O)cc7)CC6)C5)nc4)cc23)c1F` (stereo partly drawn) [Example 130, 5-[2-[(3S)-3-[4-[4-[(2,6-dioxo-3-piperidyl)amino]phenyl]piperidine-1-carbonyl]pyrrolidin-1-yl]pyrimidin-5-yl]-3-[3-[[ethyl(methyl)sulfamoyl]amino]-2,6-difluoro-benzoyl]-1H-pyrrolo[2,3-b]pyridine], in that order: 9.73 nM and 12.9%.
With `CCN(C)S(=O)(=O)Nc1cccc(C(=O)c2c[nH]c3ncc(-c4ccc(N5CCN(C(=O)CC6(O)CCN(c7ccc(NC8CCC(=O)NC8=O)cc7)CC6)CC5)nc4)cc23)c1F` (stereo not shown) [Example 109, 5-[6-[4-[2-[1-[4-[(2,6-dioxo-3-piperidyl)amino]phenyl]-4-hydroxy-4-piperidyl]acetyl]piperazin-1-yl]-3-pyridyl]-3-[3-[[ethyl(methyl)sulfamoyl]amino]-2-fluoro-benzoyl]-1H-pyrrolo[2,3-b]pyridine], it took 5.49 nM to reach half-maximal degradation (DC50) and the Emax stood at 10.8%.
For `O=C1CCC(Nc2ccc(N3CCN(CC(=O)N4CCN(c5ccc(-c6cnc7[nH]cc(C(=O)c8c(F)ccc(NS(=O)(=O)N9CC[C@@H](F)C9)c8F)c7c6)cc5)CC4)CC3)cc2)C(=O)N1` (stereo partly drawn) [Example A74, (3R)—N-[3-[5-[4-[4-[2-[4-[4-[(2,6-Dioxopiperidin-3-yl)amino]phenyl]piperazin-1-yl]acetyl]piperazin-1-yl]phenyl]-1H-pyrrolo[2,3-b]pyridine-3-carbonyl]-2,4-difluorophenyl]-3-fluoropyrrolidine-1-sulfonamide] the same measures were 7 nM and 19%.
On to `O=C1CCC(Nc2ccc(C3CCN(CC(=O)N4CCN(c5ccc(-c6cnc7[nH]cc(C(=O)c8c(F)ccc(NS(=O)(=O)C9CCCCC9)c8F)c7c6)cn5)CC4)CC3)cc2)C(=O)N1` (stereo not shown) [Example A33, N-[3-[5-[6-[4-[2-[4-[4-[(2,6-Dioxopiperidin-3-yl)amino]phenyl]piperidin-1-yl]acetyl]piperazin-1-yl]pyridin-3-yl]-1H-pyrrolo[2,3-b]pyridine-3-carbonyl]-2,4-difluorophenyl]cyclohexanesulfonamide], for which the DC50 was 34 nM and the Emax worked out at 13%.
Consider `CC(C)S(=O)(=O)Nc1ccc(F)c(C(=O)c2c[nH]c3ncc(-c4ccc(N5CCN(C(=O)CN6CCC(c7ccc(NC8CCC(=O)NC8=O)cc7)CC6)CC5)nc4)cc23)c1F` (stereo not shown) [Example 11, N-[3-[5-[6-[4-[2-[4-[4-[(2,6-dioxo-3-piperidyl)amino]phenyl]-1-piperidyl]acetyl]piperazin-1-yl]-3-pyridyl]-1H-pyrrolo[2,3-b]pyridine-3-carbonyl]-2,4-difluoro-phenyl]propane-2-sulfonamide], for which the DC50 turned out to be 5.08 nM and the Emax worked out at 7.97%.
For `CCN(C)S(=O)(=O)Nc1ccc(F)c(C(=O)c2c[nH]c3ncc(-c4cnc(N5CCC(N(C)CC(=O)N6CCC(c7ccc(NC8CCC(=O)NC8=O)cn7)CC6)CC5)nc4)cc23)c1F` (stereo not shown) [Example A90, 5-[2-[4-[[2-[4-[5-[(2,6-Dioxopiperidin-3-yl)amino]pyridin-2-yl]piperidin-1-yl]-2-oxoethyl]-methylamino]piperidin-1-yl]pyrimidin-5-yl]-3-[3-[[ethyl(methyl)sulfamoyl]amino]-2,6-difluorobenzoyl]-1H-pyrrolo[2,3-b]pyridine;formic acid], in that order: 31 nM and 20%.
For the molecule `CCN(C)S(=O)(=O)Nc1ccc(F)c(C(=O)c2c[nH]c3ncc(-c4cnc(N5CCC(NCC(=O)N6CCC(c7ccc(OC8CCC(=O)NC8=O)cc7)CC6)CC5)nc4)cc23)c1F` (stereo not shown) [Example A102, 5-[2-[4-[[2-[4-[4-(2,6-Dioxopiperidin-3-yl)oxyphenyl]piperidin-1-yl]-2-oxoethyl]amino]piperidin-1-yl]pyrimidin-5-yl]-3-[3-[[ethyl(methyl)sulfamoyl]amino]-2,6-difluorobenzoyl]-1H-pyrrolo[2,3-b]pyridine;formic acid], the DC50 was found to be 33 nM and the Emax came out at 12%.
Turning to `CCN(C)S(=O)(=O)Nc1ccc(F)c(C(=O)c2c[nH]c3ncc(-c4cnc(N5CCC(O)(CCN6CCC(c7ccc(NC8CCC(=O)NC8=O)cc7)CC6)CC5)nc4)cc23)c1F` (stereo not shown) [Example 149, 5-[2-[4-[2-[4-[4-[(2,6-dioxo-3-piperidyl)amino]phenyl]-1-piperidyl]ethyl]-4-hydroxy-1-piperidyl]pyrimidin-5-yl]-3-[3-[[ethyl(methyl)sulfamoyl]amino]-2,6-difluoro-benzoyl]-1H-pyrrolo[2,3-b]pyridine], the DC50 was found to be 9.25 nM and the Emax is 10.6%.

Broadly, the DC50 is the concentration giving 50% degradation. A low value points to a more potent degrader. A word on the Emax: it is the maximal effect, on the per cent scale that the assay sets.
